Experimental findings from BindingDB's records for PubMed 36416208 (n/a, 2022) are described below.

The assay addresses Serine/threonine-protein kinase PAK 1 (Homo sapiens, UniProt Q13153). Put plainly: Inhibition of human recombinant PAK1 assessed as phosphorylation FRET peptide substrate measured after 60 mins.

Chain of Serine/threonine-protein kinase PAK 1 (Q13153 whole entry): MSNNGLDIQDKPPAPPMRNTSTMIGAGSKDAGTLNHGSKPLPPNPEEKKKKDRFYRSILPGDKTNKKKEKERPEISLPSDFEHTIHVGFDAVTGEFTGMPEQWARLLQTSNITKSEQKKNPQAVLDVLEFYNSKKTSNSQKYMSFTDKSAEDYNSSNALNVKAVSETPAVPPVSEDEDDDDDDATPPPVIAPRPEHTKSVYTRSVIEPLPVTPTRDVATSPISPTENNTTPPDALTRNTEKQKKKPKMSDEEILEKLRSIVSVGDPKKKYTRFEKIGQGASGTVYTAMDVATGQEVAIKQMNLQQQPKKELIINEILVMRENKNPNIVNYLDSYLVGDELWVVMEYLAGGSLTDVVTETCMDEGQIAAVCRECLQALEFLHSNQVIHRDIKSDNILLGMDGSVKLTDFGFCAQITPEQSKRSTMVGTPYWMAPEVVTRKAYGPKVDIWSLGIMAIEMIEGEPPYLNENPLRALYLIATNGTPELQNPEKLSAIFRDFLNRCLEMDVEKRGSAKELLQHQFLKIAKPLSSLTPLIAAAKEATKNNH

Take `CN1C(=O)CCC(N2C(=O)c3cccc(NCCCCCCCCNC(=O)N4CC[C@H](NC5=Nc6cc(F)ccc6N(CC(F)F)c6ccc(Cl)cc65)C4)c3C2=O)C1=O` (stereo partly specified): the IC50 was determined as 233 nM.
